Assay results as given in patent EP2818471A1, “Nitrogen bicyclic compounds as inhibitors for Scyl1 and Grk5” (Max-Planck-Gesellschaft zur Förderung der Wissenschaften …, priority 2013, dated 2014).

Assays:
beta-TC6 = assay: MTT cytotoxicity assay (cell viability and proliferation); type: cell-based, mouse; conditions: beta-TC6, 72 h treatment, concentrations up to 10 µM
Experimental: Using a MTT approach, we determined the effect on cell viability and proliferation of beta-TC6 and C2C12 cells to display potential cytotoxicity of the compounds according to the invention in vitro after a 72 h treatment.
For MTT (3-(4,5-dimethylthiazol-2-yl)-2,5-diphenyl tetrazolium bromide) transformation, 1/5 of total volume of a 5 mg/mL MTT stock solution was added to the cells as well as control wells and incubated at 37 °C, 5 % CO2 (v/v) for 1 h. Then 1/2 of total volume of MTT-stop solution was added and plates were incubated overnight in the dark at 25 °C. The optical density (OD) was measured using a multiwell spectrophotometer at a wavelength of 570 nm.

[1] = biological target: T1, full length human Scyl1 (1-808) protein (Homo sapiens, UniProt Q96KG9); assay: SCYL1 reporter probe displacement assay; type: binding
T1 construct: The target enzyme used was the full length human Scyl1 (1-808) protein
T1 sequence (Q96KG9 1-808): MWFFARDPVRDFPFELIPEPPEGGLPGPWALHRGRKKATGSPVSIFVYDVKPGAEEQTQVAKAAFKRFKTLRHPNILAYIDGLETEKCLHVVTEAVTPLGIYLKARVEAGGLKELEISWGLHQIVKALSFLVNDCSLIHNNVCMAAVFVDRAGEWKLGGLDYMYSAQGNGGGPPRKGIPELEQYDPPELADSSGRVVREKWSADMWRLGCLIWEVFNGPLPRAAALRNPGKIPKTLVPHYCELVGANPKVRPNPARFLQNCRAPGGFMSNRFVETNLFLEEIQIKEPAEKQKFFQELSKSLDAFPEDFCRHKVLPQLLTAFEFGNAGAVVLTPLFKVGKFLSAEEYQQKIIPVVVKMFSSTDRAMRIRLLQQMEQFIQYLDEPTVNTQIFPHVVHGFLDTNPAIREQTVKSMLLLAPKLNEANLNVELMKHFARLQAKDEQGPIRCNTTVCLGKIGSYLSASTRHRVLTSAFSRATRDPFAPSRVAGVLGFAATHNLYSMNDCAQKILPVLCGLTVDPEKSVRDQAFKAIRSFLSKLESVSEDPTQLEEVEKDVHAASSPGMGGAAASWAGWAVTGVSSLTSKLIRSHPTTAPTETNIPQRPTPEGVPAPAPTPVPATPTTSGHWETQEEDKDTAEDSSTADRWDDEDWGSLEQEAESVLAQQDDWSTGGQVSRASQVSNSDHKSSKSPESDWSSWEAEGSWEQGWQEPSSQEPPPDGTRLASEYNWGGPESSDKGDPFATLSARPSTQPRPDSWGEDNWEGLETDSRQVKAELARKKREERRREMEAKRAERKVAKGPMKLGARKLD
Experimental: The reporter displacement assay is based on reporter probe (PRO16, Proteros GmbH) that is designed to bind to ATP-binding site of SCYL1 (Methods in Enzymology, 2011, vol. 493, p. 300-319). The proximity between reporter probe and target protein (SCYL1) results in the emission of an optical signal. Test compounds that bind to the same site as the reporter probe displace the probe, causing signal diminution. The rate of reporter probe displacement is measured over time after addition of test compounds at various concentrations.
For Kd determination, percent reporter probe displacement values are calculated for the last time point, at which the system has reached equilibrium. For each compound concentration percent probe displacement values are calculated and plotted against the compound concentration. IC50-like values (corresponding to 50% probe displacement) are calculated using standard fitting algorithms. […] Thus, according to the Cheng Prusoff equation, the Kd value of test compounds can be calculated with Kd = ½ IC50. […]
Probe displacement was calculated in relation to the C+(positive) and C-(negative) controls. The signal reflecting 0% probe displacement (C+) was measured in the absence of test compound, while the signal representing 100% probe displacement (C-) was measured in the absence of Scyl1. […]

IC50 ([1]; Scyl1 probe displacement): 0.5 µM
Inh. ([1]; probe displacement, primary screen): 100%
Compound: COc1cc(-c2ccc3ncc(-c4cccnc4)n3n2)cc(OC)c1OC [compound 10, 3-(3-pyridyl)-6-(3,4,5-trimethoxyphenyl)imidazo[1,2-b]pyridazine]
toxic effect (beta-TC6): no toxic effect at all
